Measurements from US8748457B2, “2-amino-2- [8-(dimethyl carbamoyl)- 8-aza- bicyclo [3.2.1] oct-3-yl]-exo- ethanoyl derivatives as potent DPP-IV inhibitors” (Lupin Limited, priority 2009, dated 2014).
Counter-ions that a name gives are not always drawn. Like-named read-outs stand apart in the source and are kept apart here.

Key:
[1] = biological target: T1, human recombinant DPP-IV (Homo sapiens, UniProt P27487); test: Inhibition of human recombinant DPP-IV (Gly-Pro-AMC fluorometric assay); format: biochemical
T1 construct: purchased R&D Systems, USA
Protocol: Inhibition of Human Recombinant DPP-IV
The proteolytic activity of human recombinant DPP-IV was determined by following the hydrolysis of Gly-Pro-7-amino-4-methylcoumarin (Gly-Pro-AMC) and the fluorometric quantitation of the liberated AMC. Assays were routinely carried out in 96-well flat-bottom black microwell plates. The reaction mixture (100 μl) contained 10 ng of human recombinant DPP-IV enzyme (produced in-house or procured from R&D Systems, USA) in the assay buffer (25 mM Tris-HCl, pH 7.4, 140 mM NaCl, 10 mM KCl and 0.1 mg/ml BSA) and 50 μM Gly-Pro-AMC. After incubation of assay plates at 30° C. for 30 min, the hydrolysis of Gly-Pro-AMC was monitored in a fluorescence microplate reader (Molecular Devices SpectraMax M5), with excitation and emission wavelengths set at 360 nm and 460 nm, respectively.
The inhibition of DPP-IV activity by test compounds was routinely performed by preincubating the enzyme with test compound (10 and 100 nM for primary screening and 8 concentrations from 0.1 to 1000 nM for the dose-response study) or vehicle (0.01% DMSO) for 15 min at 30° C., in a total volume of 90 μl. Test compounds were dissolved in DMSO at a concentration of 10 mM and serially diluted further in assay buffer. The enzyme reaction was initiated by the addition of Gly-Pro-AMC, followed by incubation of assay plates for 30 min at 30° C. and the liberated AMC was measured as described above. A known inhibitor of DPP-IV (positive control) was always included in the assay. Test compounds at various concentrations were always evaluated in duplicate, along with substrate blanks, vehicle controls and positive controls.
The results are expressed as percent inhibition of the enzyme activity relative to vehicle controls. Dose-response studies were conducted for those compounds exerting ≧50% inhibition of activity at 10 nM in primary screening. IC50, defined as the inhibitor concentration which caused a 50% decrease of the activity under assay conditions, was computed using GraphPad Prism software, version 5.0. […]

[2] = biological target: T2, plasma DPP-IV (Canis lupus familiaris, UniProt A0A8I3Q2I8); test: Measurement of plasma DPP-IV activity in Beagle dogs; format: in vivo; settings: dog, male Beagle dogs, single oral dose 3 mg/kg p.o.
T2 construct: from tissue; host or cells: EDTA-plasma of male Beagle dogs after oral dosing (ex vivo)
Protocol: A. Measurement of Plasma DPP-IV Activity in Beagle Dogs
Overnight-fasted male animals were administered either vehicle or single oral dose of compound. Blood samples were collected prior to dosing and for 12 hours post dose into tubes containing EDTA. EDTA-plasma was separated and DPP-IV activity was measured using a fluorometric assay. Assays were carried out in 96-well flat-bottom black microwell plates. A typical reaction contained 25 μl plasma, 50 μl of 50 μM substrate (Gly-Pro-AMC) and 25 μl assay buffer (25 mM Tris-HCl, pH 7.4, 140 mM NaCl, 10 mM KCl and 1% BSA) in a total reaction volume of 100 μl. Plasma samples were incubated with the substrate for 30 min at 30° C., following which the fluorescence was measured in a microplate fluorescence reader (POLARstar Galaxy), with excitation and emission wavelengths set at 360 nm and 460 nm, respectively. Percent inhibition in plasma DPP-IV activity due to compounds was calculated by comparing with plasma from vehicle-treated animals.

T1 sequence (P27487 whole entry): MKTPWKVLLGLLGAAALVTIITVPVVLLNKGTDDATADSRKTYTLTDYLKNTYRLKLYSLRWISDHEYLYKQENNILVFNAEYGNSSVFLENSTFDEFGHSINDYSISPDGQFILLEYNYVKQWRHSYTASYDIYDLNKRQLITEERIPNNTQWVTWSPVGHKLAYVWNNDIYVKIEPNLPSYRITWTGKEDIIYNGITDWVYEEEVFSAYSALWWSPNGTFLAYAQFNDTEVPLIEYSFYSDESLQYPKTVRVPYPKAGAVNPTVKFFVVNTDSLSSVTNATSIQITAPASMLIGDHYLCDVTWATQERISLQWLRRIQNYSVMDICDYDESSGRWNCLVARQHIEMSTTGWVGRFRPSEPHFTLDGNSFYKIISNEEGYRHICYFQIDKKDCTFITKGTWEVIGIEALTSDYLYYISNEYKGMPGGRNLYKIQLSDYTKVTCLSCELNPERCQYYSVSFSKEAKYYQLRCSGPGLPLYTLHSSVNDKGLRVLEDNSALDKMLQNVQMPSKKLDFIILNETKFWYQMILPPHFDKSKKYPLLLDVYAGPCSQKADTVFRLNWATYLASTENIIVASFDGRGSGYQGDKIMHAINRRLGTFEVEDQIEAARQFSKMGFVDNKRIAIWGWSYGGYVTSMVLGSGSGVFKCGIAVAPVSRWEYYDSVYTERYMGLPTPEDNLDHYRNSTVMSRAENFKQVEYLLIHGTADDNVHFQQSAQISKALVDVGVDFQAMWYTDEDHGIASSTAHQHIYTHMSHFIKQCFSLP
T2 sequence (A0A8I3Q2I8 1-765): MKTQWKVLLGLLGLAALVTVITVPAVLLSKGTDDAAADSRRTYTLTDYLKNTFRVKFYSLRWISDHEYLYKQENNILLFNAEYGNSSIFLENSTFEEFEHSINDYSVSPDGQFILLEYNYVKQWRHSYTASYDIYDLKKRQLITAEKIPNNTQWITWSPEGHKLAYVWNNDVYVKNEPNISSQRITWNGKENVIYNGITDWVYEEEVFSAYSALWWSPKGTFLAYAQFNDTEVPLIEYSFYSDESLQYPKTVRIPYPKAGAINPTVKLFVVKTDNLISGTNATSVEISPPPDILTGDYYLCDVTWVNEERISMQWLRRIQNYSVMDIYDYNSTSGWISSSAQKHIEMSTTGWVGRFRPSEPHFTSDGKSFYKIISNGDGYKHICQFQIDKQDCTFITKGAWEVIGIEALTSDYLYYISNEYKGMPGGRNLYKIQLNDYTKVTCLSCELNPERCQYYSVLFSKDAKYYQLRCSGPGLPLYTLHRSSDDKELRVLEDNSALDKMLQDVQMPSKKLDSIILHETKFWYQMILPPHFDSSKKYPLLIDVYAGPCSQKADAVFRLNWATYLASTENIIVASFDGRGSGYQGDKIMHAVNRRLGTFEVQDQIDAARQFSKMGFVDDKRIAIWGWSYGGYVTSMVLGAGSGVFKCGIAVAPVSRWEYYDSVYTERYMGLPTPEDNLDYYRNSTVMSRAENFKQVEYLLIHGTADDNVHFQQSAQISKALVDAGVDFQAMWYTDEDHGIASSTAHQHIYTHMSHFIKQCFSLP

CN(C)C(=O)N1C2CCC1CC([C@H](N)C(=O)N1[C@H](C#N)C[C@@H]3C[C@@H]31)C2 (stereo partly drawn) (as salt: salt) [Compound 1, (1S,3S,5S)-2-{(2S)-2-Amino-2-[8-(dimethylcarbamoyl)-8-aza-bicyclo[3.2.1]-oct-3-yl]-exo-ethanoyl}-2-azabicyclo[3.1.0]-hexane-3-carbonitrile trifluoro acetic acid salt]
melting point: 178 to 180 °C

C#C[C@H]1CC[C@@H](C#N)N1C(=O)[C@@H](N)C1CC2CCC(C1)N2C(=O)N(C)C (stereo partly drawn) (as salt: salt) [Compound 2, (2S,5R)-1-{(2S)-2-Amino-2-[8-(dimethylcarbamoyl)-8-aza-bicyclo[3.2.1]oct-3-yl]-exo-ethanoyl}-5-ethynyl-pyrrolidin-2-carbonitrile trifluoro acetic acid salt]
melting point: 165 to 167 °C

CN(C)C(=O)N1C2CCC1CC([C@H](N)C(=O)N1[C@H](C#N)C[C@@H]3C[C@@H]31)C2 (stereo partly drawn) [Compound 1, (1S,3S,5S)-2-{(2S)-2-Amino-2-[8-(dimethylcarbamoyl)-8-aza-bicyclo[3.2.1]-oct-3-yl]-exo-ethanoyl}-2-azabicyclo[3.1.0]-hexane-3-carbonitrile trifluoro acetic acid salt]
inhibition at 0.01 µM ([1]; compound at 10 nM (primary screening)): 69%
inhibition at 0.1 µM ([1]; compound at 100 nM (primary screening)): 94.8%

C#C[C@H]1CC[C@@H](C#N)N1C(=O)[C@@H](N)C1CC2CCC(C1)N2C(=O)N(C)C (stereo partly drawn) [Compound 2, (2S,5R)-1-{(2S)-2-Amino-2-[8-(dimethylcarbamoyl)-8-aza-bicyclo[3.2.1]oct-3-yl]-exo-ethanoyl}-5-ethynyl-pyrrolidin-2-carbonitrile trifluoro acetic acid salt]
IC50 ([1]; 50 μM Gly-Pro-AMC, 15 min preincubation, 30 min at 30° C.): 3.3 nM
inhibition at 3 mg/kg ([2]; 0.5 h post dose, read-out: Plasma DPP-IV Inhibition (%) 0.5 h): 91%
inhibition at 3 mg/kg ([2]; 1 h post dose, read-out: Plasma DPP-IV Inhibition (%) 1 h): 85%
inhibition at 3 mg/kg ([2]; 2 h post dose, read-out: Plasma DPP-IV Inhibition (%) 2 h): 92%
inhibition at 3 mg/kg ([2]; 3 h post dose, read-out: Plasma DPP-IV Inhibition (%) 3 h): 90%
inhibition at 3 mg/kg ([2]; 4 h post dose, read-out: Plasma DPP-IV Inhibition (%) 4 h): 85%
inhibition at 3 mg/kg ([2]; 6 h post dose, read-out: Plasma DPP-IV Inhibition (%) 6 h): 72%
inhibition at 3 mg/kg ([2]; 8 h post dose, read-out: Plasma DPP-IV Inhibition (%) 8 h): 68%
inhibition at 3 mg/kg ([2]; 10 h post dose, read-out: Plasma DPP-IV Inhibition (%) 10 h): 67%
inhibition at 3 mg/kg ([2]; 12 h post dose, read-out: Plasma DPP-IV Inhibition (%) 12 h): 62%
